Test results taken from patent US4243674A, “9-Hydroxydibenzo[b,d]pyrans and intermediates therefore” (priority 1978, dated 1981).
Where two headings read alike, the source gives them in different places.

Columns and labels:
[1] = system: phenylbenzoquinone-induced writhing; experiment: Suppression of phenylbenzoquinone irritant-induced writhing (PBQ); format: in vivo, Carworth Farms CF-1 mice; conditions: mice; for ED50: Mus musculus, read-out: ANALGESIC ACTIVITY ED50, PBQ
Protocol: Test Using Chemical Nociceptive Stimuli
Suppression of Phenylbenzoquinone Irritant-Induced Writhing
Groups of 5 Carworth Farms CF-1 mice are pretreated subcutaneously or orally with saline, morphine, codeine or the test compound. Twenty minutes (if treated subcutaneously) or fifty minutes (if treated orally) later, each group is treated with intraperitoneal injection of phenylbenzoquinone, an irritant known to produce abdominal contractions. The mice are observed for 5 minutes for the presence or absence of writhing starting 5 minutes after the injection of the irritant. MPE50 's of the drug pretreatments in blocking writhing are ascertained.
(§1) Results of the above tests are recorded as percent maximum possible effect (% MPE). The % MPE of each group is statistically compared to the % MPE of the standard and the predrug control values. The % MPE is calculated as follows: [formula]
(§2) By means of the above procedures, the analgesic activity of several compounds of this invention and of certain prior art compounds are determined. The data are reported in terms of maximum possible effect.
(§3) PBQ=phenylbenzoquinone-induced writhing; TF=tail flick; HP=hot plate; RTC=rat tail clamp; FJ=flinch jump; and TI=tail immersion assays.

tail flick = experiment: Mouse tail flick analgesic testing (TF); format: in vivo, mice; conditions: for ED50: Mus musculus; for ED50 / ANALGESIC ACTIVITY ED50, TF: tail flick, mice
Source text: (§4) Tests Using Thermal Nociceptive Stimuli
(b) Mouse Tail Flick Analgesic Testing
Tail flick testing in mice is modified after D'Amour and Smith, J. Pharmacol. Exp. Ther., 72, 74-79 (1941), using controlled high intensity heat applied to the tail. Each mouse is placed in a snug-fitting metal cylinder, with the tail protruding through one end. This cylinder is arranged so that the tail lies flat over a concealed heat lamp. At the onset of testing, an aluminum flag over the lamp is drawn back allowing the light beam to pass through the slit and focus onto the end of the tail. A timer is simultaneously activated. The latency of a sudden flick of the tail is ascertained. Untreated mice usually react within 3-4 seconds after exposure to the lamp. The end point for protection is 10 seconds. Each mouse is tested at 0.5 and 2 hours after treatment with morphine and the test compound. Morphine has an MPE50 of 3.2-5.6 mg./kg. (s.c.).
as §1, §2, §3

hot plate = experiment: Mouse hot plate analgesic testing (HP); format: in vivo, mice; conditions: for ED50: Mus musculus; for ED50 / ANALGESIC ACTIVITY ED50, HP: hot plate, mice
Protocol: as §4
(a) Mouse Hot Plate Analgesic Testing
The method used is modified after Woolfe and MacDonald, J. Pharmacol. Exp. Ther., 80, 300-307 (1944). A controlled heat stimulus is applied to the feet of mice on a 1/8" thick aluminum plate. A 250 watt reflector infrared heat lamp is placed under the bottom of the aluminum plate. A thermal regulator, connected to thermistors on the plate surface, programs the heat lamp to maintain a constant temperature of 57° C. Each mouse is dropped into a glass cylinder (61/2" diameter) resting on the hot plate, and timing is begun when the animal's feet tough the plate. The mouse is observed at 0.5 and 2 hours after treatment when the test compound for the first "flicking"movements of one or both hind feet, or until 10 seconds elapse without such movements. Morphine has an MPE50 =4-5.6 mg./kg. (s.c.).
as §1, §2, §3

rat tail clamp = experiment: Haffner tail pinch procedure / rat tail clamp (RTC); format: in vivo, male albino rats, Charles River (Sprague-Dawley) CD strain; conditions: for ED50: 1 hour, read-out: ANALGESIC ACTIVITY ED50, RTC 1 hour
Protocol: Tests Using Pressure Nociceptive Stimuli
Effect on the Haffner Tail Pinch Procedure
A modification of the procedure of Haffner, Experimentelle Prufung Schmerzstillender. Mittel Deutch Med. Wschr., 55, 731-732 (1929) is used to ascertain the effects of the test compound on aggressive attacking responses elicited by a stimulus pinching the tail. Male albino rats (50-60 b.) of the Charles River (Sprague-Dawley) CD strain are used. Prior to drug treatment, and again at 0.5, 1, 2 and 3 hours after treatment, a Johns Hopkins 2.5-inch "bulldog" clamp is clamped onto the root of the rat's tail. The endpoint at each trial is clear attacking and biting behavior directed toward the offending stimulus, with the latency for attack recorded in seconds. The clamp is removed in 30 seconds if attacking has not yet occurred, and the latency of response is recorded as 30 seconds. Morphine is active at 17.8 mg./kg. (i.p.).
as §1, §2, §3

tail immersion = experiment: Tail immersion procedure (TI); format: in vivo, male albino mice, Charles River CD-1 strain; conditions: Mus musculus, 0.5 h, read-out: ANALGESIC ACTIVITY ED50, TI 1/2 hour
Protocol: (c) Tail Immersion Procedure
The method is a modification of the receptacle procedure developed by Benbasset, et al., Arch. int. Pharmacodyn., 122, 434 (1959). Male albino mice (19-21 g.) of the Charles River CD-1 strain are weighed and marked for identification. Five animals are normally used in each drug treatment group with each animal serving as its own control. For general screening purposes, new test agents are first administered at a dose of 56 mg./kg. intraperitoneally or subcutaneously, delivered in a volume of 10 ml./kg. Preceding drug treatment and at 0.5 and 2 hours post drug, each animal is placed in the cylinder. Each cylinder is provided with holes to allow for adequate ventilation and is closed by a round nylon plug through which the animal's tail protrudes. The cylinder is held in an upright position and the tail is completely immersed in the constant temperature waterbath (56° C.). The endpoint for each trial is an energetic jerk or twitch of the tail coupled with a motor response. In some cases, the endpoint may be less vigorous post drug. To prevent undue tissue damage, the trial is terminated and the tail removed from the waterbath within 10 seconds. The response latency is recorded in seconds to the nearest 0.5 second. A vehicle control and a standard of known potency are tested concurrently with screening candidates. If the activity of a test agent has not returned to baseline values at the 2-hour testing point, response latencies are determined at 4 and 6 hours. A final measurement is made at 24 hours if activity is still observed at the end of the test day.
as §1, §2, §3

flinch jump = experiment: Flinch-jump test (FJ); format: in vivo, male albino rats, Charles River (Sprague-Dawley) CD strain; conditions: Rattus norvegicus, rats, 2 hours, read-out: ANALGESIC ACTIVITY ED50, FJ 2 hours
Source text: Tests Using Electrical Nociceptive Stimuli
A modification of the flinch-jump procedure of Tenen, Psychopharmacologia, 12, 278-285 (1968) is used for determining pain thresholds. Male albino rats (175-200 g.) of the Charles River (Sprague-Dawley) CD strain are used. Prior to receiving the drug, the feet of each rat are dipped into a 20% glycerol/saline solution. The animals are then placed in a chamber and presented with a series of 1-second shocks to the feet which are delivered in increasing intensity at 30-second intervals. These intensities are 0.26, 0.39, 0.52, 0.78, 1.05, 1.31, 1.58, 1.86, 2.13, 2.42, 2.72 and 3.04 mA. Each animal's behavior is rated for the presence of (a) flinch, (b) squeak and (c) jump or rapid forward movement at shock onset. Single upward series of shock intensities are presented to each rat just prior to, and at 0.5, 2, 4 and 24 hours subsequent to drug treatment.
as §1, §2, §3

Row | Structure (SMILES) | ED50 [1] | ED50 (tail flick) | ED50 (hot plate) | ED50 (rat tail clamp) | ED50 (flinch jump) | ED50 (tail immersion; tail immersion, mice, 1/2 hour) | further results
1 | CC(CCCOc1ccccc1)c1cc(O)c2c(c1)OC(C)(C)[C@@H]1CC[C@@H](O)C[C@@H]21 (relative stereo) [CH(CH3)(CH2)3OC6 H5, dl-6aβ,7,8,9,10,10aα-hexahydro-1-hydroxy-6,6-dimethyl-3-(1-methyl-4-phenoxybutyl)-6H-dibenzo[b,d]pyran-9β-ol] | 0.39 mg/kg | 1.2 mg/kg | ~10 mg/kg | – | – | – | –
2 | CN1CC[C@]23c4c5ccc(O)c4O[C@H]2[C@@H](O)C=C[C@H]3[C@H]1C5 [morphine, reference compound] | – | – | – | – | – | – | ANALGESIC ACTIVITY ED50, PBQ [1]: 0.8 mg/kg; MPE50 tail flick (tail flick; s.c.): 3.2 to 5.6 mg/kg; ANALGESIC ACTIVITY ED50, TF (tail flick): 3.8 mg/kg; ANALGESIC ACTIVITY ED50, HP (hot plate): 4.7 mg/kg; MPE50 hot plate (hot plate; s.c., 57° C. plate): 4 to 5.6 mg/kg; ANALGESIC ACTIVITY ED50, RTC (1/2 hr.) (rat tail clamp; 1/2 hr. (morphine only), 30 min): 2.9 mg/kg; ED50 (tail immersion): 4 mg/kg
3 | CC(CCCc1ccccc1)c1cc(O)c2c(c1)OC(C)(C)[C@@H]1CC[C@@H](O)C[C@@H]21 (relative stereo) [CH(CH3)(CH2)3C6 H5, dl-6aβ,7,8,9,10,10aα-Hexahydro-1-hydroxy-6,6-dimethyl-3-(1-methyl-4-phenylbutyl)-6H-dibenzo[b,d]pyran-9β-ol] | 0.062 mg/kg | 0.32 mg/kg | 0.75 mg/kg | 1.8 mg/kg | 0.11 mg/kg | 0.3 mg/kg | –
4 | CCCCCC(C)C(C)c1cc(O)c2c(c1)OC(C)(C)[C@@H]1CC[C@@H](O)C[C@@H]21 (relative stereo) [CH(CH3)CH(CH3)C5 H11, reference compound] | 0.1 mg/kg | 0.35 mg/kg | 1.1 mg/kg | 0.44 mg/kg | 0.11 mg/kg | 0.38 mg/kg | –
5 | CC(CCCc1ccccc1)c1cc(O)c2c(c1)OC(C)C1CCC(O)CC21 (racemic) [CH(CH3)(CH2)3C6 H5^(a), dl-6aα-7,8,9,10,10a-hexahydro-1-hydroxy-6α-methyl-3-(1-methyl-4-phenylbutyl)-6H-dibenzo[b,d]pyran-9β-ol] | – | – | – | – | – | – | ANALGESIC ACTIVITY ED50, PBQ [1]: 0.94 mg/kg; ANALGESIC ACTIVITY ED50, TF (tail flick): 1.6 mg/kg; ANALGESIC ACTIVITY ED50, HP (hot plate): 5.6 mg/kg
6 | CCCCCc1cc(O)c2c(c1)OC(C)(C)[C@@H]1CC[C@@H](O)C[C@@H]21 (relative stereo) [C5 H11, reference compound] | 0.68 mg/kg | 3.2 mg/kg | ≥ 17.8 mg/kg | 58 mg/kg | 8 mg/kg | 13 mg/kg | –
7 | CC1(C)Oc2cc(OC3CCCCC3)cc(O)c2[C@@H]2C[C@H](O)CC[C@H]21 (relative stereo) [OC6 H11, dl-6aβ,7,8,9,10,10aα-1-hydroxy-6,6-dimethyl-3-cyclohexyloxy-6H-dibenzo[b,d]pyran-9β-ol] | 5.3 mg/kg | > 10 mg/kg | > 10 mg/kg | – | – | – | –
8 | CCCCCC(C)Oc1cc(O)c2c(c1)OC(C)(C)[C@@H]1CC[C@@H](O)C[C@@H]21 (relative stereo) [OCH(CH3)C5 H11, dl-6aβ,7,8,9,10,10aα-Hexahydro-1-Hydroxy-6,6-Dimethyl-3-(2-Heptyloxy)-6H-Dibenzo[b,d]pyran-9β-ol] | 0.16 mg/kg | 0.46 mg/kg | 1.2 mg/kg | 0.34 mg/kg | 0.3 mg/kg | 0.7 mg/kg | –
9 | CC(CCCc1ccncc1)c1cc(O)c2c(c1)OC(C)(C)[C@@H]1CC[C@@H](O)C[C@@H]21 (relative stereo) [CH2 (CH3)(CH2)34-pyridyl, dl-6aβ,7,8,9,10,10aα-hexahydro-1-hydroxy-6,6-dimethyl-3-[1-methyl-4-(4-pyridyl)butyl]-6H-dibenzo[b,d]pyran-9β-ol] | 0.17 mg/kg | – | – | – | – | – | –
10 | CC(CCCCc1ccccc1)c1cc(O)c2c(c1)OC(C)(C)[C@@H]1CC[C@@H](O)C[C@@H]21 (relative stereo) [CH(CH3 (CH2)4C6 H5, dl-6aβ,7,8,9,10,10aα-hexahydro-1-hydroxy-6,6-dimethyl-3-(1-methyl-5-phenylpentyl)-6H-dibenzo[b,d]pyran-9β-ol] | 1.33 mg/kg | 2.8 mg/kg | 3.9 mg/kg | < 3.2 mg/kg | 0.42 mg/kg | 3.5 mg/kg | –
11 | CC(CCc1ccccc1)c1cc(O)c2c(c1)OC(C)(C)[C@@H]1CC[C@@H](O)C[C@@H]21 (relative stereo) [CH(CH3)(CH2)2C6 H5, dl-6aβ,7,8,9,10,10aα-hexahydro-1-hydroxy-6,6-dimethyl-3-(1-methyl-3-phenylpropyl)-6H-dibenzo[b,d]pyran-9β-ol] | 5 mg/kg | > 10 mg/kg | > 10 mg/kg | – | – | – | –
12 | CC(CCc1ccccc1)Oc1cc(O)c2c(c1)OC(C)(C)[C@@H]1CC[C@@H](O)C[C@@H]21 (relative stereo) [OCH(CH3)(CH2)2C6 H5, dl-6aβ,7,8,9,10,10aα-hexahydro-1-hydroxy-6,6-dimethyl-3-(1-methyl-3-phenylpropoxy)-6H-dibenzo[b,d]pyran-9β-ol] | 0.21 mg/kg | 1.3 mg/kg | ~3.2 mg/kg | – | – | – | –
13 | CC(CCOc1ccccc1)c1cc(O)c2c(c1)OC(C)(C)[C@@H]1CC[C@@H](O)C[C@@H]21 (relative stereo) [CH(CH3)(CH2)2OC6 H5, dl-6aβ,7,8,9,10,10aα-hexahydro-1-hydroxy-6,6-dimethyl-3-(1-methyl-3-phenoxypropyl)-6H-dibenzo[b,d]pyran-9β-ol] | 0.1 to 1 mg/kg | – | – | – | – | – | –
